# Experimental data from patent US12252472B1, “Barbituric acid derivatives, their preparation and use thereof as leukocyte transmigration inhibitors and for treating inflammatory diseases, autoimmune diseases and cancer” (BAR-ILAN UNIVERSITY, priority 2017, dated 2025).
# Tests used:
# [1] = tested on: B cells; experiment: B-lymphocyte adhesion and transmigration, MesenFlow assay; type: cell-based; conditions: 30 μM
# Method: Flow assays were conducted as described in a previous study (Bradfield, P. F., et al., JAM-C regulates unidirectional monocyte transendothelial migration in inflammation. Blood, 2007. 110(7): p. 2545-55). HUVECs were cultured at 1×10^5 cells/slide on Ibidi 6-chamber slides (80606; Ibidi) before treatment with TNFα (500 U/mL) for 6-10 hours. An individual chamber outlet was then attached to a calibrated pump (74 900; Cole Partner, Vernon Hills, IL) and flow was generated by perfusing wash buffer (M199 with 0.15% BSA) or a monocyte suspension (2.5×10^6 cells/mL) over the HUVEC monolayer. The flow rate was representative of shear rates in small venules (0.05 Pa). Observations made using phase-contrast microscopy (Model: Axiovert 100; Objective: 20×/0.3 NA air; Carl Zeiss) were recorded using a high-resolution camera (D70; Nikon, Zurich, Switzerland). Individual images were recorded every 30 seconds with Nikon capture software (v4.2) and compiled into movie sequences using Adobe Photoshop (CS6) and Image J (v1.5d), allowing analysis of individual monocytes over large areas. The tested compounds, e.g. compounds of the general Formula (I), were maintained at the specified concentration in all wash buffers throughout the course of the experiment. The compounds were preincubated separately on both HUVECs and monocytes 15 minutes prior to flow co-culture. […]
# [2] = tested on: C57BL/6J mice; experiment: Acute dextran sodium sulfate (DSS) induced colitis model; type: in vivo, mouse
# Method: The colitis was inducted by adding 1.5% DSS to the drinking water of female C57BL/6J (7-8 weeks old) mice for 5 consecutive days (days 0-4) for all animals in the experimental groups. On day 5, DSS containing water was changed for regular drinking water and treatment was initiated. The working suspension of the compound of Formula 2 was administrated at 15 mg/kg by IV, IP or SC injections at q3w regimen (administered 3 times per week) and at 30 mg/kg by PO at qd regimen (once daily). Treatment continued for 10 days and thereafter mice were euthanized.
# Determination of individual body weight of animals was made prior to each dosing and the administered volume was adjusted accordingly. Additional body weights throughout the entire experimental period were taken on a daily bases. The severity of colitis Disease Activity Index (DAI) score was monitored daily according to the criteria shown in Table 3 and calculated as a sum of the weight loss score, the diarrheal score and the hematochezia score. Disease activity index (DAI) based on the methods reported by Friedman et al. (PNAS, 2009) was used.
# Mice from all groups were euthanized with isoflurane 24 hours post last dose administration. Colon was collected from each mouse, filled with 4% buffered formalin and colon length was measured. Large intestines were fixed, embedded in paraffin, sections and H&E stained using modified Swiss roll technique. Histological Score evaluation was performed based on: inflammatory cells infiltration and tissue damage, in four compartments of the large intestine graded from 0 to 3.
# For tissue damage, discrete lymphoepithelial lesions were scored as 1, mucosal erosions as 2, and extensive mucosal damage and/or extension through deeper structures of the bowel wall as 3. The length of ulceration was measured in mm. The two equally weighted subscores (cell infiltration and tissue damage) at each compartment of the intestine were added as a colitis severity score. Ordinary one-way ANOVA statistical analysis was performed.
# [3] = tested on: C57BL/6J mice; experiment: Acute toxicology in naive mice (blood counts, biochemical tests, histology); type: in vivo, mouse
# Method: 1% methyl cellulose in DDW solution was prepared by adding 0.5 g methyl cellulose into 50 ml of DDW and stirring the solution at the lowest possible speed (without making bubbles) overnight at room temperature. Formula 2 stock solution was prepared in concertation of 20 mg/ml at room temperature following shown below order of actions: • 1. 30 mg of the compound of Formula 2 was placed in the glass vial together with small magnet. • 2. 1.5 ml of 1% methylcellulose was added by circular (swirled) movement very slow. The entire surface of the vial was gently covered by the solvent and powder was not allowed to float above the liquid. • 3. The resulting suspension was stirred at the lowest possible speed up to 48 hours at room temperature. • 4. Intermediate Formula 2 stock solution at 10 mg/ml concentration was prepared by diluting 20 mg/ml stock solution 1:1 (v/v) with equal amount of DDW. DDW was added to the Formula 2 stock solution. The obtained suspension was stirred at the lowest possible speed for another hour at room temperature. • 5. Formula 2 working solution at 3 mg/ml was prepared by diluting intermediate stock solution (v/v) with DDW accordingly. The working suspension of Formula 2 was stirred at the low speed (˜80-100 rpm) for 30 minutes to 1 hour prior to use in animal experiments.
# Eight experimental groups with 5 female 6-7 weeks old C57BL/6J mice each and one control group non treated (naïve) mice were used for the experiment. Mice were administered with daily application of the working suspension of the compound of Formula 2, prepared as described hereinabove, at 5, 10 and 15 mg/kg by intraperitoneal injection (IP) or at 10, 20 and 30 mg/kg by oral gavage (PO). […] Mice from all groups were euthanized with isoflurane 24 hours post last dose administration. Sampling for whole blood counts (WBC) and white blood differentiation: 200 μl of whole blood were collected into EDTA tubes (Greiner MiniCollect K3EDTA tubes). For comprehensive metabolic panel the rest of the whole blood (300-400 μl) was collected for the serum preparation. All blood tests were conducted in American Medical Labs, Herzeliah, Israel. Liver, spleen, lungs, heart and kidneys were collected from each mouse placed to vials with 4% buffered formalin following paraffin embedding and sectioning. Sections from each organ of each animal were stained with H&E and histological evaluation of the tissue was performed.
# [4] = 5, 10, 15 mg/kg IP or 10, 20, 30 mg/kg PO, daily
compound,measurement,setting,value
"COC(=O)c1ccc(COc2c(C=C3C(=O)NC(=O)NC3=O)cccc2C(C)(C)C)cc1 [Formula 2, methyl 4-((2-(tert-butyl)-6-((2,4,6-trioxotetrahydropyrimidin-5(2H)-ylidene)methyl)phenoxy)methyl) benzoate]",B cell adhesion and transmigration,[1],dramatic blocking effect
same,"Disease Activity Index (DAI) score, PO treated mice",[2]; 30 mg/kg PO qd,maximal effect
same,"colon length, amount by which control groups were shorter than treated groups",[2]; all treated groups vs control groups,approximately 2 cm
same,Disease Activity Index (DAI) score,"[2]; all treated groups: 15 mg/kg IV, IP or SC q3w, 30 mg/kg PO qd, 10 days",significantly decreased
same,Weight loss score,[2]; treated groups vs control groups,significantly lower
same,stool formation that readily becomes paste on the anus,[2]; treated groups vs control mice,not detected
same,Histological score of large intestine,[2]; treated vs control mice,significantly lower
same,"microstructure of lungs, heart, liver, spleen and kidney tissues",[3]; 3 doses IP,no effect
same,"microstructure of lungs, heart, liver, spleen and kidney tissues",[3]; 3 doses PO,no effect
same,"blood levels of calcium, phosphorus, sodium, potassium, chloride and hemolytic index","[3]; 3 doses PO or 3 doses IP, n=5",no effect
same,"blood levels of creatinine, urea, total protein, albumin, globulin, glucose","[3]; 3 doses PO or 3 doses IP, n=5",no effect
same,"blood levels of total billirubin, alkaline phosphatase, SGOT, SGPT and cholesterol","[3]; 3 doses PO or 3 doses IP, n=5",no effect
same,"different subtypes of red blood cells, platelets and hematocrit","[3]; 3 doses PO or 3 doses IP, n=5",no effect
same,different subtypes of white blood cells,"[3]; 3 doses PO or 3 doses IP, n=5",no effect
same,tested metabolic values,[3]; [4],in normal range
same,whole blood counts and white cells differentiation,[3]; [4],no significant changes
same,"tissues morphology, microscopic evaluation","[3]; liver, spleen, lungs, heart, kidneys, IP and PO",no changes
